{"source": "ChEMBL document CHEMBL4007390", "about": "“Design, synthesis and biological evaluation of indolin-2-one-based derivatives as potent, selective and efficacious inhibitors of FMS-like tyrosine kinase3 (FLT3)” (Eur J Med Chem, 2017)", "key": {"[1]": {"target": "Aurora kinase A (Homo sapiens) (UniProt O14965)", "test": "Inhibition of human Aurora A at 0.1 uM relative to control"}, "[2]": {"test": "Oral bioavailability in Balb/c nude mouse at 40 mg/kg via gavage by LC-MS/MS analysis", "format": "ADME, organism-based", "details": "in vivo"}, "[3]": {"target": "Serine/threonine-protein kinase Nek6 (Homo sapiens) (UniProt Q9HC98)", "test": "Inhibition of human NEK6 at 0.1 uM relative to control"}, "786-0": {"system": "786-0", "test": "Antiproliferative activity against human 786-O cells harboring VHL after 72 hrs by MTS assay", "format": "functional, cell-based", "details": "786-0, 72 h"}, "Cytochrome P450 2C9": {"target": "Cytochrome P450 2C9 (Homo sapiens, UniProt P11712)", "test": "Inhibition of microsomal CYP2C9 (unknown origin) using diclofenac as substrate preincubated for 5 mins followed by NADPH addition by LC-MS/MS analysis", "format": "ADME"}, "MDA-MB-231": {"system": "MDA-MB-231", "test": "Antiproliferative activity against human MDA-MB-231 cells harboring K-Ras/B-Raf after 72 hrs by MTS assay", "format": "functional, cell-based", "details": "MDA-MB-231, 72 h"}, "[4]": {"test": "Toxicity in Harlan nude mouse xenografted with human MV4-11 cells administered ig bid for 20 days", "details": "in vivo, po"}, "MV4-11 [5]": {"system": "MV4-11", "test": "Antiproliferative activity against human MV4-11 cells harboring FLT3 ITD mutant after 72 hrs by MTS assay", "format": "functional, cell-based", "details": "MV4-11, 72 h"}, "[6]": {"target": "Proto-oncogene tyrosine-protein kinase receptor Ret (Homo sapiens) (UniProt P07949)", "test": "Inhibition of human RET at 0.1 uM relative to control"}, "Mus musculus": {"system": "Mus musculus", "test": "Toxicity in Harlan nude mouse xenografted with human MV4-11 cells assessed as mouse death at 5 to 80 mg/kg, ig bid for 20 days", "format": "organism-based", "details": "in vivo, po, 480 h"}, "[7]": {"target": "Ribosomal protein S6 kinase beta-1 (Homo sapiens) (UniProt P23443)", "sequence (P23443 whole entry, looked up)": "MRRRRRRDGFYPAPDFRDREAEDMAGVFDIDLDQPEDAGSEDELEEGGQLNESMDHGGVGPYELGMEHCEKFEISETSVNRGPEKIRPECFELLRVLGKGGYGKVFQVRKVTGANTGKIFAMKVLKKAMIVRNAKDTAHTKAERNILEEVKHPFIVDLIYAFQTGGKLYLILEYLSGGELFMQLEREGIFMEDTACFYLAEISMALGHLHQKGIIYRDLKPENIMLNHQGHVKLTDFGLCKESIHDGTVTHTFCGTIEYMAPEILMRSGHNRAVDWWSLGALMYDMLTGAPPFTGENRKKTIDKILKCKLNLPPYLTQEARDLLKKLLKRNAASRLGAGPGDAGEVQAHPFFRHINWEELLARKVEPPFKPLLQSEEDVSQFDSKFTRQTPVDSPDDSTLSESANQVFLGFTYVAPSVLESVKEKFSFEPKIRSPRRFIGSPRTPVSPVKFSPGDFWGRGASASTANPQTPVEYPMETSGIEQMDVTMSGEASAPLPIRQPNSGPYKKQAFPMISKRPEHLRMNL", "test": "Inhibition of human RPS6KB1 at 0.1 uM relative to control"}, "[8]": {"target": "Serine/threonine-protein kinase PAK 4 (Homo sapiens) (UniProt O96013)", "sequence (O96013 whole entry, looked up)": "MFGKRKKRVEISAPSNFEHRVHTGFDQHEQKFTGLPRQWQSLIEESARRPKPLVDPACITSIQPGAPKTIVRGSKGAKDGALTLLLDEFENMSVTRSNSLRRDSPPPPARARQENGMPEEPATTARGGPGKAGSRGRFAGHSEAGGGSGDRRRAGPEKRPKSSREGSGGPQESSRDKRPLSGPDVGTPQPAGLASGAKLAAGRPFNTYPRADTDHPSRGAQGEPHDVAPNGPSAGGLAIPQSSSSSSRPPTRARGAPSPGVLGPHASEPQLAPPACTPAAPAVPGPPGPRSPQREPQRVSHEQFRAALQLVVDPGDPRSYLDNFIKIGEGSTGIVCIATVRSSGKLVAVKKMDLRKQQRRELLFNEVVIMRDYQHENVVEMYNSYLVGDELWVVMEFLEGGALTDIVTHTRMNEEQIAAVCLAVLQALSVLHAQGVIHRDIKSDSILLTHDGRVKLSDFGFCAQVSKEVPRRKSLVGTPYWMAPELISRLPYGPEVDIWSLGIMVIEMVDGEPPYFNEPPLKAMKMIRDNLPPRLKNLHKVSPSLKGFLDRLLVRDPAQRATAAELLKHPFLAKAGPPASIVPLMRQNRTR", "test": "Inhibition of human PAK4 at 0.1 uM relative to control"}, "[9]": {"system": "Mast/stem cell growth factor receptor Kit (Homo sapiens), P10721 [T670I]", "test": "Inhibition of human KIT T670I mutant at 0.1 uM relative to control"}, "[10]": {"target": "Ephrin type-B receptor 4 (Homo sapiens) (UniProt P54760)", "sequence (P54760 whole entry)": "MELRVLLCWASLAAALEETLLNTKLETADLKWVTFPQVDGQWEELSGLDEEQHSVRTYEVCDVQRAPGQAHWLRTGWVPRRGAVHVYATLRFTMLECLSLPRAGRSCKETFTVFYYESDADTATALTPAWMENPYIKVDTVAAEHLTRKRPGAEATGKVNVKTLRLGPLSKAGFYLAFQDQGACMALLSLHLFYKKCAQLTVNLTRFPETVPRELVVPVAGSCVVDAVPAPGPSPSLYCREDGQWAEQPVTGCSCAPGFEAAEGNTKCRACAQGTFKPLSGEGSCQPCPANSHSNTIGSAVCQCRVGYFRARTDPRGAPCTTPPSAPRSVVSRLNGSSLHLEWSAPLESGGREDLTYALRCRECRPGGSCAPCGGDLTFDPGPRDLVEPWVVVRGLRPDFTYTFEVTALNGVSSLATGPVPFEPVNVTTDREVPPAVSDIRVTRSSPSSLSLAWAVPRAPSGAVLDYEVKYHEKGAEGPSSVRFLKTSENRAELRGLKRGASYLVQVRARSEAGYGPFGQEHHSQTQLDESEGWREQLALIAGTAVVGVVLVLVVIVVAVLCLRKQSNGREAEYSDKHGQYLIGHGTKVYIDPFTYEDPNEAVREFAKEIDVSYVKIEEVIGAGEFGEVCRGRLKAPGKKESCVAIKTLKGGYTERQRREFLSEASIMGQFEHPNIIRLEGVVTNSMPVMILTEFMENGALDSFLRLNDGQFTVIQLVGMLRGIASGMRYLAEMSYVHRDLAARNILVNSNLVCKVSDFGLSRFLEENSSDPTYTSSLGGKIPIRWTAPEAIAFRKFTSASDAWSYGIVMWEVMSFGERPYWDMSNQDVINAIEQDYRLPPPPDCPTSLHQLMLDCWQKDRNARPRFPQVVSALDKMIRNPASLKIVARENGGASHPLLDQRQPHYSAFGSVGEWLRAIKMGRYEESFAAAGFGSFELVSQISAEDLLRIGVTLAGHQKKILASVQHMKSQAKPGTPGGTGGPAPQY", "test": "Inhibition of human EPHB4 at 0.1 uM relative to control"}, "MV4-11 [11]": {"system": "MV4-11", "test": "Antitumor activity against human MV4-11 cells xenografted in Harlan nude mouse assessed as tumor growth inhibition at 10 mg/kg, ig bid for 20 days relative to control", "format": "functional", "details": "MV4-11, po, 480 h, read-out: TGI"}, "[12]": {"test": "Inhibition of human FLT3 ITD mutant"}, "[13]": {"system": "Platelet-derived growth factor receptor alpha (Homo sapiens), P16234 [D842V]", "test": "Inhibition of human PDGFRalpha D842V mutant at 0.1 uM relative to control"}, "Cytochrome P450 1A2": {"target": "Cytochrome P450 1A2 (Homo sapiens, UniProt P05177)", "test": "Inhibition of microsomal CYP1A2 (unknown origin) using phenacetin as substrate preincubated for 5 mins followed by NADPH addition by LC-MS/MS analysis", "format": "ADME"}, "[14]": {"target": "Tyrosine-protein kinase ABL1 (Homo sapiens) (UniProt P00519)", "test": "Inhibition of human ABL1 at 0.1 uM relative to control"}, "Cytochrome P450 3A4": {"target": "Cytochrome P450 3A4 (Homo sapiens, UniProt P08684)", "sequence (P08684 whole entry)": "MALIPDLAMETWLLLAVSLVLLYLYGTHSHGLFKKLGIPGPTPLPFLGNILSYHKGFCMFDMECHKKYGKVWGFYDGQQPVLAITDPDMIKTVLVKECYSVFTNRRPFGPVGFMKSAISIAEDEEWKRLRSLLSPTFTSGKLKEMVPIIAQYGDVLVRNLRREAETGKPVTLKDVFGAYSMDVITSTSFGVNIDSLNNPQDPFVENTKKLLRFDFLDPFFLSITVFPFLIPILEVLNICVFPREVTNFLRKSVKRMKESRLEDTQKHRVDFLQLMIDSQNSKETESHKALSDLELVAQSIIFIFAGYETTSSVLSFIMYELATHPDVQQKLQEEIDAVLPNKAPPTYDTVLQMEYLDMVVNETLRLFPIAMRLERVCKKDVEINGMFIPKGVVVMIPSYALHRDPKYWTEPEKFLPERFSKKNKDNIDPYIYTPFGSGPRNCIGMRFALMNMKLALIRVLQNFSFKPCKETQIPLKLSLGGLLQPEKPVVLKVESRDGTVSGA", "test": "Inhibition of microsomal CYP3A4 (unknown origin) using midazolam as substrate preincubated for 5 mins followed by NADPH addition by LC-MS/MS analysis", "format": "ADME"}, "Homo sapiens": {"organism": "Homo sapiens", "test": "Inhibition of human FLT3 ITD mutant at 0.1 uM relative to control"}, "[15]": {"target": "Vascular endothelial growth factor receptor 2 (Homo sapiens) (UniProt P35968)", "sequence (P35968 whole entry)": "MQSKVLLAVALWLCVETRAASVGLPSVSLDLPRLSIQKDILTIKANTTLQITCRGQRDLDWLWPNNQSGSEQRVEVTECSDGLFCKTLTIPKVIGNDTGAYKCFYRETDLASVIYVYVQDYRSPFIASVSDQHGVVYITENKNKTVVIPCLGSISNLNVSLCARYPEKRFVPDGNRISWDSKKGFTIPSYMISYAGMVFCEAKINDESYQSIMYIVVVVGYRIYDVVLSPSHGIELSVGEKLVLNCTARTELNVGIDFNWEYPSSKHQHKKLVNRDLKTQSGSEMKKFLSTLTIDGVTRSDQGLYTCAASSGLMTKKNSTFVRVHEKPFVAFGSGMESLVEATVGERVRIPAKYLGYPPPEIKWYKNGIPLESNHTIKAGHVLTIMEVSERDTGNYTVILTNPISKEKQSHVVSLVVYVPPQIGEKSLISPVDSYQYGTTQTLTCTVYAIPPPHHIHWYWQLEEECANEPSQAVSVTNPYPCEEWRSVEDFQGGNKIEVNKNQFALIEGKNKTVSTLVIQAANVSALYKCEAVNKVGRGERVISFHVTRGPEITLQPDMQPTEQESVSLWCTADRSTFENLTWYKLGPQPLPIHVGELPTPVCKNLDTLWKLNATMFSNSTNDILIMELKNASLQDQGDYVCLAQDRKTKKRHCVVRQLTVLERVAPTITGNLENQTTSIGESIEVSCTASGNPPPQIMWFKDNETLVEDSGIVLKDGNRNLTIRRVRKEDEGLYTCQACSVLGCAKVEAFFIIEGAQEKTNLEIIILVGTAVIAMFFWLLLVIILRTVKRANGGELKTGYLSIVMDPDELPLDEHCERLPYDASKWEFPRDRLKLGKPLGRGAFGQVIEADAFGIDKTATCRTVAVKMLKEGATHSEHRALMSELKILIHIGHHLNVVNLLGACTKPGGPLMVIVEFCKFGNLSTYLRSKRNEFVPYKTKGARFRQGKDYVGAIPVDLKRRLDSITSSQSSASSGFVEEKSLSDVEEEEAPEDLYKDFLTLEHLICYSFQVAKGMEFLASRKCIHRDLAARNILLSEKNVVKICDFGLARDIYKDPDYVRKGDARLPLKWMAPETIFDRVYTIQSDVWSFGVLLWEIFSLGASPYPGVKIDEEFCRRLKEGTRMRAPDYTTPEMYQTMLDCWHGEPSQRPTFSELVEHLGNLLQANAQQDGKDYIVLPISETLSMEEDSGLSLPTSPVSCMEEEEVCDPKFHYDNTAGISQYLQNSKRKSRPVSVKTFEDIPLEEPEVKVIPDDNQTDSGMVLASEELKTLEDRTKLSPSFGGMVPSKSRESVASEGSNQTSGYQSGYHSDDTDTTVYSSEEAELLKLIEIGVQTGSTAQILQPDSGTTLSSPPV", "test": "Inhibition of human VEGFR2 at 0.1 uM relative to control"}, "[16]": {"target": "Cyclin-dependent kinase 2 (Homo sapiens) (UniProt P24941)", "test": "Inhibition of human CDK2 at 0.1 uM relative to control"}, "Cytochrome P450 2C19": {"target": "Cytochrome P450 2C19 (Homo sapiens, UniProt P33261)", "test": "Inhibition of microsomal CYP2C19 (unknown origin) using S-mephenytoin as substrate preincubated for 5 mins followed by NADPH addition by LC-MS/MS analysis", "format": "ADME"}, "[17]": {"target": "Insulin receptor (Homo sapiens) (UniProt P06213)", "test": "Inhibition of human INSR at 0.1 uM relative to control"}, "[18]": {"target": "Discoidin domain-containing receptor 2 (Homo sapiens) (UniProt Q16832)", "sequence (Q16832 whole entry, the tested form may be a part)": "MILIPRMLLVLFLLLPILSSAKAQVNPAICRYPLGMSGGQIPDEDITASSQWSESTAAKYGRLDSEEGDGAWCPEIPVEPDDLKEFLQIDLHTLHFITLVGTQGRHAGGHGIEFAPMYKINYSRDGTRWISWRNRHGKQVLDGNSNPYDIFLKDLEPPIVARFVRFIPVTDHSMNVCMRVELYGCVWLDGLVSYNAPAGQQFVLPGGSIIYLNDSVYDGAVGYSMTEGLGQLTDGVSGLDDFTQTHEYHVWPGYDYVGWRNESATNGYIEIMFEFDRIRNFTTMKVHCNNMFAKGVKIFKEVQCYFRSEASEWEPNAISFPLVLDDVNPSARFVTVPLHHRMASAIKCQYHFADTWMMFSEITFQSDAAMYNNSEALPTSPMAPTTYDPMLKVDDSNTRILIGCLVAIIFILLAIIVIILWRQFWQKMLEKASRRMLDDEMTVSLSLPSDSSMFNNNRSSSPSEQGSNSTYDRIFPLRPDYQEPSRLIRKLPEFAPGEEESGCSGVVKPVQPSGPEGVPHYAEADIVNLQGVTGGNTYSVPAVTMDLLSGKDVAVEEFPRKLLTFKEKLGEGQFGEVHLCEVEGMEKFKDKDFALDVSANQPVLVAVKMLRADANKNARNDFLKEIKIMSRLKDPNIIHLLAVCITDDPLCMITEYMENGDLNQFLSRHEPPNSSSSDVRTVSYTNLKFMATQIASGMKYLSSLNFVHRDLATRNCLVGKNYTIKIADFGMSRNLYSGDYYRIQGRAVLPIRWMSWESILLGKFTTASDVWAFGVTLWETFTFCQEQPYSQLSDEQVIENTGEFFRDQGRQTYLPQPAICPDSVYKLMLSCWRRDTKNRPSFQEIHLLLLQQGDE", "test": "Inhibition of human DDR2 at 0.1 uM relative to control"}, "[19]": {"target": "Tyrosine-protein kinase Lck (Homo sapiens) (UniProt P06239)", "test": "Inhibition of human LCK at 0.1 uM relative to control"}, "[20]": {"target": "Mitogen-activated protein kinase 1 (Homo sapiens) (UniProt P28482)", "test": "Inhibition of human MAPK1 at 0.1 uM relative to control"}, "[21]": {"target": "Receptor-type tyrosine-protein kinase FLT3 (Homo sapiens, UniProt P36888)", "test": "Inhibition of human FLT3"}, "Kasumi 1": {"system": "Kasumi 1", "test": "Antiproliferative activity against human Kasumi-1 cells harboring […] after 72 hrs by MTS assay", "format": "functional, cell-based", "details": "Kasumi 1, 72 h"}, "MV4-11 [22]": {"system": "MV4-11", "test": "Antitumor activity against human MV4-11 cells xenografted in Harlan nude mouse assessed as tumor growth inhibition at 5 mg/kg, ig bid for 20 days relative to control", "format": "functional", "details": "MV4-11, po, 480 h, read-out: TGI"}, "[23]": {"target": "Receptor-type tyrosine-protein kinase FLT3 (Homo sapiens) (UniProt P36888)", "details": "0.1 uM", "description": "Inhibition of human FLT3 at 0.1 uM relative to control"}, "[24]": {"target": "Epidermal growth factor receptor (Homo sapiens) (UniProt P00533)", "test": "Inhibition of human EGFR at 0.1 uM relative to control"}, "[25]": {"target": "Mast/stem cell growth factor receptor Kit (Homo sapiens, UniProt P10721)", "test": "Inhibition of human KIT at 0.1 uM relative to control"}, "HUVEC": {"system": "HUVEC", "test": "Antiproliferative activity against HUVEC after 72 hrs by MTS assay", "format": "cell-based", "details": "Homo sapiens"}, "Jurkat": {"system": "Jurkat", "test": "Antiproliferative activity against FLT3 negative human Jurkat cells after 72 hrs by MTS assay", "format": "functional, cell-based"}, "COLO 205": {"system": "COLO 205", "test": "Antiproliferative activity against human COLO205 cells harboring B-Raf after 72 hrs by MTS assay", "format": "functional, cell-based", "details": "COLO 205, 72 h"}, "KG-1": {"system": "KG-1", "test": "Antiproliferative activity against human KG1 cells harboring wild type FLT3 after 72 hrs by MTS assay", "format": "functional, cell-based", "details": "KG-1, 72 h"}, "[26]": {"target": "Tyrosine-protein kinase JAK2 (Homo sapiens) (UniProt O60674)", "test": "Inhibition of human JAK2 at 0.1 uM relative to control"}, "MOLM-13": {"system": "MOLM-13", "test": "Antiproliferative activity against human MOLM13 cells harboring FLT3 ITD mutant after 72 hrs by MTS assay", "details": "MOLM-13, 72 h"}, "[27]": {"target": "Fibroblast growth factor receptor 1 (Homo sapiens) (UniProt P11362)", "test": "Inhibition of human FGFR1 at 0.1 uM relative to control"}, "[28]": {"target": "Tyrosine-protein kinase receptor UFO (Homo sapiens) (UniProt P30530)", "test": "Inhibition of human AXL at 0.1 uM relative to control"}}}
{"smiles": "Cc1[nH]c(/C=C2\\C(=O)Nc3ccc(F)cc32)c(C)c1NC(=O)[C@H]1CCCN1.Cl", "values": [{"measurement": "inhibition", "setting": "[1]", "result": 2, "unit": "%"}, {"measurement": "bioavailability", "setting": "[2]", "result": 59, "unit": "%"}, {"measurement": "inhibition", "setting": "[3]", "result": 8, "unit": "%"}, {"measurement": "IC50", "setting": "786-0", "result": 12.2, "unit": "µM"}, {"measurement": "IC50", "setting": "Cytochrome P450 2C9", "result": "> 33", "unit": "µM"}, {"measurement": "IC50", "setting": "MDA-MB-231", "result": "> 20", "unit": "µM"}, {"measurement": "MTD at 480 h", "setting": "[4]", "result": 160, "unit": "mg/kg/day"}, {"measurement": "IC50", "setting": "MV4-11 [5]", "result": 0.0248, "unit": "µM"}, {"measurement": "inhibition", "setting": "[6]", "result": 88, "unit": "%"}, {"measurement": "Activity", "setting": "Mus musculus", "result": "Non-Toxic"}, {"measurement": "inhibition", "setting": "[7]", "result": 8, "unit": "%"}, {"measurement": "inhibition", "setting": "[8]", "result": 14, "unit": "%"}, {"measurement": "inhibition", "setting": "[9]", "result": 77, "unit": "%"}, {"measurement": "inhibition", "setting": "[10]", "result": -4, "unit": "%"}, {"measurement": "inhibition in vivo at 10 mg/kg", "setting": "MV4-11 [11]", "result": 88.7, "unit": "%"}, {"measurement": "IC50", "setting": "[12]", "result": 0.0007, "unit": "µM"}, {"measurement": "inhibition", "setting": "[13]", "result": 21, "unit": "%"}, {"measurement": "IC50", "setting": "Cytochrome P450 1A2", "result": 17.7, "unit": "µM"}, {"measurement": "inhibition", "setting": "[14]", "result": 20, "unit": "%"}, {"measurement": "IC50", "setting": "Cytochrome P450 3A4", "result": "> 33", "unit": "µM"}, {"measurement": "inhibition", "setting": "Homo sapiens", "result": 105, "unit": "%"}, {"measurement": "inhibition", "setting": "[15]", "result": 38, "unit": "%"}, {"measurement": "inhibition", "setting": "[16]", "result": 8, "unit": "%"}, {"measurement": "IC50", "setting": "Cytochrome P450 2C19", "result": "> 33", "unit": "µM"}, {"measurement": "inhibition", "setting": "[17]", "result": 16, "unit": "%"}, {"measurement": "inhibition", "setting": "[18]", "result": 7, "unit": "%"}, {"measurement": "inhibition", "setting": "[19]", "result": 43, "unit": "%"}, {"measurement": "inhibition", "setting": "[20]", "result": -7, "unit": "%"}, {"measurement": "IC50", "setting": "[21]", "result": 0.0053, "unit": "µM"}, {"measurement": "IC50", "setting": "Kasumi 1", "result": 0.251, "unit": "µM"}, {"measurement": "inhibition in vivo at 5 mg/kg", "setting": "MV4-11 [22]", "result": 52.4, "unit": "%"}, {"measurement": "inhibition", "setting": "[23]", "result": 95, "unit": "%"}, {"measurement": "inhibition", "setting": "[24]", "result": -1, "unit": "%"}, {"measurement": "inhibition", "setting": "[25]", "result": 85, "unit": "%"}, {"measurement": "IC50", "setting": "HUVEC", "result": 11.3, "unit": "µM"}, {"measurement": "IC50", "setting": "Jurkat", "result": 4.18, "unit": "µM"}, {"measurement": "IC50", "setting": "COLO 205", "result": 6.6, "unit": "µM"}, {"measurement": "IC50", "setting": "KG-1", "result": 24.5, "unit": "µM"}, {"measurement": "inhibition", "setting": "[26]", "result": -4, "unit": "%"}, {"measurement": "IC50", "setting": "MOLM-13", "result": 0.0236, "unit": "µM"}, {"measurement": "inhibition", "setting": "[27]", "result": 27, "unit": "%"}, {"measurement": "inhibition", "setting": "[28]", "result": 44, "unit": "%"}]}
